# Key:
# female NMRI mice = test: Anorectic action: cumulative milk consumption after removal of feed for 24 hours; format: in vivo; conditions: for cumulative milk consumption by treated animals: evaporated milk, monitored for 7 hours; for Reduction in cumulative milk consumption as % of the contol: vs control animals
# Method: The anorectic action was tested on female NMRI mice. After removal of feed for 24 hours, the preparation to be tested was administered intraperitoneally (ip) or by gavage (po). The animals were housed singly and, with free access to drinking water, they were offered evaporated milk 30 minutes after administration of the preparation. The consumption of evaporated milk was determined and the general behavior of the animals was monitored every half an hour for 7 hours. The measured milk consumption was compared to that of vehicle-treated control animals.
smiles,measurement,setting,value
"CSC1Cc2cc(Cl)ccc2C1=O (stereo not shown) [Example 1, 5-Chloro-2-methylsulfanylindan-1-one]",melting point,,90 °C
same,cumulative milk consumption by treated animals,female NMRI mice; 10 mg/kg ip,05/1.20 ml
same,Reduction in cumulative milk consumption as % of the contol,female NMRI mice; 10 mg/kg ip,64%
"O=C1c2ccc(Cl)cc2CC1Sc1ccccc1 (stereo not shown) [Example 3, 5-chloro-2-phenylsulfanylindan-1-one]",melting point,,89 °C
"C[S+]([O-])C1Cc2cc(Cl)ccc2C1=O (stereo not shown) [Example 9, 5-chloro-2-methanesulfinylindan-1-one]",melting point,,228.87 °C
same,cumulative milk consumption by treated animals,female NMRI mice; 50 mg/kg po,05/1.16 ml
same,Reduction in cumulative milk consumption as % of the contol,female NMRI mice; 50 mg/kg po,73%
"O=C1c2ccc(Cl)cc2CC1S(=O)(=O)c1ccccc1 (stereo not shown) [Example 4, 2-benzenesulfonyl-5-chloroindan-1-one]",melting point,,133 °C
"CS(=O)(=O)C1Cc2cc(Cl)ccc2C1=O (stereo not shown) [Example 2, 5-Chloro-2-methanesulfonylindan-1-one]",cumulative milk consumption by treated animals,female NMRI mice; 20 mg/kg ip,05/1.16 ml
same,Reduction in cumulative milk consumption as % of the contol,female NMRI mice; 20 mg/kg ip,70%

# Reference: US6946492B2, “Use of C2-substituted indan-1-one systems for preparing medicaments for the treatment of obesity” (Aventis Pharma Deutschland GmbH, priority 2001, dated 2005)
